Laboratory results published in patent US7314970B2, “Method for plant breeding” (priority 1997, dated 2008).

Columns and labels:
most plant species = most plant species (Franz, 1985), but not all; cited from earlier work
[1] = test system: DK580 and DK626 BC4 hybrids of FI117, GA21, GG25 and GJ11; assay: Effect of glyphosate application on growth and fertility of DK580 and DK626 hybrids (field test); format: in vivo, maize
Source text: BC4 hybrids of DK580 and DK626 were produced containing one of the FI117, GA21, GG25 or GJ11 transformation events as described in example 14. Comparisons of the effect of glyphosate application on growth (mean extended leaf height) and male fertility was compared at both the V4 and V8 developmental stage. The developmental scale that was used to rate the corn plants is well known in the art, and is described in Special Report No. 48, Iowa State University of Science and Technology, Cooperative Extension Service, Ames, Iowa. Each of the hybrids was studied at both the V4 and V8 stage using 0× glyphosate (i.e. water only), 1× glyphosate, or 4× glyphosate (the 1× level corresponds to 16 ounces/acre of ROUNDUP ULTRA™).
Tests were designed as four row, 3 rep., split-split-plot with main plots as hybrids, subplots as transformant sources (i.e. GA21, GG25, FI117, and GJ11) and subplots as timing/rate combinations […]. Statistical methods for design and analysis of data derived from experimental field plots are described in Gomez and Gomez, (1984). Tests were conducted in Dekalb, Ill., and Thomasboro, Ill. during 1996. All rows were planted at double normal planting density, i.e., 60 seeds per row, because hybrids segregated 1:1 for the glyphosate resistance trait. Sprayed plants were thinned to 30 plants per row no sooner than 7 days after application of Roundup at a time when Roundup susceptible plants could be identified. Unsprayed plots were thinned to 30 plants per row at the same time. At 5-10 days after herbicide application, the following data was collected in each row: number of dead plants, number of damaged plants, and number of normal plants. After thinning, the mean extended leaf height was measured on 10 resistant plants per plot. During the remainder of the growing season the following agronomic data was collected: early stand count, seedling vigor, final stand count, plant height, ear height, intactness, stay green, number of barren plants, number of male-sterile plants, number of dropped ears, number of root lodged plants, number of stalks lodged plants, shelled grain weight, per cent grain moisture at harvest, and test weight.

[2] = test system: DK580 and DK626 hybrids of FI117, GA21, GG25 and GJ11; assay: Yield effect of glyphosate application on DK580 and DK626 hybrids (field test); format: in vivo, maize
Method: Tests were designed as four row, 3 rep., split-split-plot with main plots as hybrids, subplots as transformant sources (i.e. GA21, GG25, FI117, and GJ11) and subplots as timing/rate combinations […]. Statistical methods for design and analysis of data derived from experimental field plots are described in Gomez and Gomez, (1984). Tests were conducted in Dekalb, Ill., and Thomasboro, Ill. during 1996. All rows were planted at double normal planting density, i.e., 60 seeds per row, because hybrids segregated 1:1 for the glyphosate resistance trait. Sprayed plants were thinned to 30 plants per row no sooner than 7 days after application of Roundup at a time when Roundup susceptible plants could be identified. Unsprayed plots were thinned to 30 plants per row at the same time. […] After thinning, the mean extended leaf height was measured on 10 resistant plants per plot. […]
Four DK580 and four DK626 hybrids, each containing a different mutant EPSPS transgene from one of the GA21, FI117, GJ11 or GG25 transformation events, were field tested for possible effects on yield with glyphosate application as described in Example 12, with treatments as shown in FIG. 13. […] Data were analyzed using the SAS PROC MIXED and PROC SUM procedures. […]

| Structure (SMILES) | phytotoxicity relative to glyphosate (most plant species) | male fertility ([1]; all 4 GA21 treatments) | resistance to glyphosate (mean extended leaf height) ([1]; all 4 transformation events, 1× and 4× application levels (1× = 16 ounces/acre ROUNDUP ULTRA)) | male fertility ([1]; application at V4 stage, all plants) | male fertility ([1]; application at V8 stage, only GJ11 and GJ25 treatments) | effect on yield ([2]; DK580 hybrids, glyphosate applied at V4 stage) | effect on yield ([2]; DK626 hybrids with GA21 or FI117, V8 stage, 4× rate) |
| --- | --- | --- | --- | --- | --- | --- | --- |
| NCP(=O)(O)O [AMPA, aminomethylphosphonate] | much less phytotoxic than glyphosate | – | – | – | – | – | – |
| O=C(O)CNCP(=O)(O)O [glyphosate, N-phosphonomethyl-glycine] | – | male-fertile plants | significant resistance | male-fertile | male sterile plants | significant decreases in yield are not observed for 3 of the 4 DK580 hybrids | no significant loss in yield |
